Patent publication US10301272B2, “Carboxamide or sulfonamide substituted thiazoles and related derivatives as modulators for the orphan nuclear receptor ROR[γ]” (Phenex Pharmaceuticals AG, priority 2012, dated 2019)
Like-named read-outs stand apart in the source and are kept apart here.

Key:
RORγ = RORγ (Homo sapiens, UniProt P51449); experiment: RORγ Gal4 Reporter Gene Assay; assay type: cell-based
How it was run: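 Cells at 5×10^5/well were transfected with RORγ fragments fused to the GAL4 DNA-binding domain (CMV promoter), a 5×GAL4-site firefly luciferase reporter and CMV-Renilla luciferase for normalization. About 4 h later serum-free MEM and compound were added (vehicle ≤0.1%). Cultures at 37 °C, 5% CO2; at least triplicates.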

[1] = biological target: RORγ ligand binding domain (LBD) (Homo sapiens (Human), UniProt P51449); experiment: TR-FRET Activity Assay (ligand sensing assay, LANCE); conditions: TR-FRET, interaction of RORγ-LBD with coactivator peptide
RORγ ligand binding domain (LBD), sequence (P51449 269-508): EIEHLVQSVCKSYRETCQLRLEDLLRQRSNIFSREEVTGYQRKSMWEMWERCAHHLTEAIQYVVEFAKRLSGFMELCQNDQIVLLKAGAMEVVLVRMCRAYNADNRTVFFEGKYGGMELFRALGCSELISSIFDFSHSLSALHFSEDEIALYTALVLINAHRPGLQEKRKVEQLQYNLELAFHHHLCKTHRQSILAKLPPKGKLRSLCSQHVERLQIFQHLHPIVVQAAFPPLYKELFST
From the text: The ligand-binding domain (LBD) of RORγ was expressed as fusion protein with GST in BL-21 (BL3) cells using the vector pDEST15. Cells were lysed by lysozyme-treatment and sonication, and the fusion proteins purified over glutathione sepharose (Pharmacia) according to the manufacturers instructions. For screening of compounds for their influence on the RORγ-peptide interaction, the LANCE technology (Perkin Elmer) was applied. This method relies on the binding dependent energy transfer from a donor to an acceptor fluorophor attached to the binding partner of interest. For ease of handling and reduction of background from compound fluorescence LANCE technology makes use of generic fluorophore labels and time resolved detection assays were done in a final volume of 25 μL in a 384 well plate, in a Tris-based buffer system (20 mM Tris-HCl pH 6.8; 60 mM KCl, 1 mM DTT; 5 mM MgCl2; 35 ng/μL BSA), containing 20-60 ng/well recombinantly expressed RORγ-LBD fused to GST, 200-600 nM N-terminally biotinylated peptide, 200 ng/well Streptavidin-xlAPC conjugate (Prozyme) and 6-10 ng/well Eu W1024-antiGST (Perkin Elmer). DMSO content of the samples was kept at 1%.
After generation of the Tris-based buffer system, the potentially RORγ modulating ligands were diluted. […] The LANCE signal was detected by a Perkin Elmer EnVision™ Multilabel Counter. […] Ligands that promote the complex formation induce a concentration-dependent increase in time-resolved fluorescent signal.
Y is the response. Y starts at Bottom and goes to Top with a sigmoidal shape.
This is identical to the “four parameter logistic equation”. The IC50 values are calculated using this equation.

[2] = firefly (FF) luciferase, 293T cells
[3] = renilla normalised (RENnorm) luciferase, 293T cells

RORγ, sequence (P51449 whole entry, looked up, the tested form may be a part): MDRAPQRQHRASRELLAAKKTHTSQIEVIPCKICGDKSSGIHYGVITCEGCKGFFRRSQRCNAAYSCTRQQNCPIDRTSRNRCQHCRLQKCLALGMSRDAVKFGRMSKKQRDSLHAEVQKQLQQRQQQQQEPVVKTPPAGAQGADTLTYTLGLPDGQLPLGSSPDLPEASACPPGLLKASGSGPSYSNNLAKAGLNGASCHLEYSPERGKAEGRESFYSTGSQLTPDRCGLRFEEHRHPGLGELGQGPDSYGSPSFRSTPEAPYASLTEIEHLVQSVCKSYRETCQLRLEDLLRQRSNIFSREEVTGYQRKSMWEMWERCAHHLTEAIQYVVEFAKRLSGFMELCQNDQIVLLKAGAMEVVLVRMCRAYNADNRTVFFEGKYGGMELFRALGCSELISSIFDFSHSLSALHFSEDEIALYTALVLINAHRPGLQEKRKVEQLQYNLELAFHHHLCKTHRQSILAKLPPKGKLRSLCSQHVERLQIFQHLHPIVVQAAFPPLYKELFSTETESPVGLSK

Compound	pIC50 (FF) (RORγ)	pIC50 (REN) (RORγ)	pIC50 (FRET) [1]	pIC50 (FF) (RORγ; [2])	pIC50 (REN) (RORγ; [3])
CC(C)(C)NS(=O)(=O)c1ccc(-c2sc(C(=O)N[C@H]3C[C@H](C(=O)O)C3)nc2CC2CCCCC2)c2c1CCC2 [9/11]	6.6/8.5/8.5	6.6/8.5/8.5	6.6/8.5/8.5	–	–
CC1(c2cc(C(=O)NC3(C#N)CC3)cc(-c3sc(C(=O)NC4CCS(=O)(=O)CC4)nc3CC3CCCCC3)c2)CC1 [10/2]	6.6/7.3/7.4	6.6/7.3/7.4	6.6/7.3/7.4	–	–
CC(C)(C)NS(=O)(=O)c1ccc(-c2sc(S(N)(=O)=O)nc2CC2CCCCC2)cc1C(F)(F)F [13/2]	6.5/6.7/6.8	6.5/6.7/6.8	6.5/6.7/6.8	–	–
CC(C)(C)NS(=O)(=O)c1ccc(-c2sc(S(N)(=O)=O)nc2CC2CCCCC2)c2ccccc12 [13/3]	6.6/7.5/7.7	6.6/7.5/7.7	6.6/7.5/7.7	–	–
COCC(C)(C)NS(=O)(=O)c1ccc(-c2sc(C(=O)N3CC4(CCS(=O)(=O)CC4)C3)nc2CC2CCCCC2)c2ccccc12 [14/2]	6.5/7.4/7.4	6.5/7.4/7.4	6.5/7.4/7.4	–	–
O=C(c1nc(CC2CCCCC2)c(-c2ccc(S(=O)(=O)NC3CS(=O)(=O)C3)c3ccccc23)s1)N1CC2(CCS(=O)(=O)CC2)C1 [14/3]	6.6/6.4/6.4	6.6/6.4/6.4	6.6/6.4/6.4	–	–
O=C(c1nc(CC2CCCCC2)c(-c2ccc(S(=O)(=O)N3CCOCC3)c3ccccc23)s1)N1CC2(CCS(=O)(=O)CC2)C1 [14/4]	6.2/6.4/6.3	6.2/6.4/6.3	6.2/6.4/6.3	–	–
CNS(=O)(=O)c1ccc(-c2sc(C(=O)N3CC4(CCS(=O)(=O)CC4)C3)nc2CC2CCCCC2)c2ccccc12 [14/5]	6.3/6.6/6.6	6.3/6.6/6.6	6.3/6.6/6.6	–	–
CC(C)(C)NS(=O)(=O)c1ccc(-c2sc(C(=O)NC3C[S+]([O-])C3)nc2CC2CCCCC2)cc1C(C)(C)O (stereo not drawn) [15/2]	6.6/7.3/7.3	6.6/7.3/7.3	6.6/7.3/7.3	–	–
CC(C)(C)NS(=O)(=O)c1ccc(-c2sc(C(=O)NC3CS(=O)(=O)C3)nc2CC2CCCCC2)cc1C(C)(C)O [15/3]	6.9/7.9/7.9	6.9/7.9/7.9	6.9/7.9/7.9	–	–
CC(C)(C)NS(=O)(=O)c1ccc(-c2sc(C(=O)NC3CS(=O)(=O)C3)nc2CC2CCCCC2)c(Cl)c1Cl [15/4]	7.3/8.7/9.0	7.3/8.7/9.0	7.3/8.7/9.0	–	–
CC(C)(C)NS(=O)(=O)c1ccc(-c2sc(C(=O)NC3C[S+]([O-])C3)nc2CC2CCCCC2)c(Cl)c1Cl (stereo not drawn) [15/5]	6.9/8.5/8.4	6.9/8.5/8.4	6.9/8.5/8.4	–	–
CC(C)(C)NS(=O)(=O)c1ccc(-c2sc(C(=O)NCc3ncc(S(C)(=O)=O)s3)nc2CC2CCCCC2)c(Cl)c1Cl [15/7]	7.2/8.3/8.4	7.2/8.3/8.4	7.2/8.3/8.4	–	–
CC(C)(C)NS(=O)(=O)c1ccc(-c2sc(C(=O)N3CC4(CC[S+]([O-])CC4)C3)nc2CC2CCCCC2)c2ccccc12 [15/9]	6.4/7.8/7.9	6.4/7.8/7.9	6.4/7.8/7.9	–	–
COC(c1nc(C(=O)N[C@H]2C[C@H](C(=O)O)C2)sc1-c1cc(C(C)(C)C)cc(C2(C)CC2)c1)C1CCCCC1 (stereo partly drawn) [19/2]	6.1/7.0/7.0	6.1/7.0/7.0	6.1/7.0/7.0	–	–
COC(c1nc(C(=O)NC2CCOCC2)sc1-c1cc(C(C)(C)C)cc(C2(C)CC2)c1)C1CCCCC1 (stereo not drawn) [19/3]	6.8/7.1/7.1	6.8/7.1/7.1	6.8/7.1/7.1	–	–
COC(c1nc(C(=O)N[C@H]2C[C@H](C(=O)O)C2)sc1-c1ccc(S(=O)(=O)NC(C)(C)C)c(Cl)c1Cl)C1CCCCC1 (stereo partly drawn) [19/4]	6.0/7.3/7.2	6.0/7.3/7.2	6.0/7.3/7.2	–	–
CC(C)(O)CNC(=O)c1nc(CC2CCCCC2)c(-c2ncc(S(=O)(=O)NC(C)(C)C)c3ccccc23)s1 [19/6]	6.4/7.7/7.7	6.4/7.7/7.7	6.4/7.7/7.7	–	–
Cc1c(C(=O)NC(C)(C)C)cc(-c2sc(C(=O)N[C@H]3C[C@H](C(=O)O)C3)nc2CC2CCCCC2)cc1C1(C)CC1 [19/7]	5.8/6.8/6.8	5.8/6.8/6.8	5.8/6.8/6.8	–	–
CC(C)(O)CNC(=O)c1nc(CC2CCCCC2)c(-c2ccc(S(=O)(=O)NC(C)(C)C)c3c(F)cccc23)s1 [19/8]	7.0/7.7/7.8	7.0/7.7/7.8	7.0/7.7/7.8	–	–
CC(C)(C)NS(=O)(=O)c1ccc(-c2sc(C(=O)N[C@H]3C[C@H](C(=O)O)C3)nc2CC2CCCCC2)c2c(F)cccc12 [19/9]	6.3/7.0/7.1	6.3/7.0/7.1	6.3/7.0/7.1	–	–
CC(C)(C)NS(=O)(=O)c1ccc(-c2sc(C(=O)N[C@H]3C[C@H](C(=O)O)C3)nc2CC2CCCCC2)c(F)c1OC(F)(F)F [19/10]	6.7/8.4/8.5	6.7/8.4/8.5	6.7/8.4/8.5	–	–
CC(C)(C)c1cc(-c2sc(C(=O)NC3CC(C(=O)O)C3)nc2CC2CCCCC2)nc(C2(C)CC2)n1 (stereo not drawn) [19/12]	–	–	6.1	6.8	6.7
CC(C)(C)c1cc(-c2sc(C(=O)NC3CC(C(=O)O)C3)nc2CC2CCCCC2)nc(C(C)(C)C)n1 (stereo not drawn) [19/13]	–	–	6.5	6.9	6.9
CC(C)(O)CNC(=O)c1nc(CC2CCCCC2)c(-c2ccc(S(=O)(=O)NC(C)(C)C)c3cccc(F)c23)s1 [19/14]	6.4/6.8/6.9	6.4/6.8/6.9	6.4/6.8/6.9	–	–
CC(C)(O)CNC(=O)c1nc(CC2CCC2)c(-c2ccc(S(=O)(=O)NC(C)(C)C)c3ccccc23)s1 [21/2]	6.8/8.4/8.5	6.8/8.4/8.5	6.8/8.4/8.5	–	–
